Assays:
γ-secretase [1] = molecular target: T1, γ-secretase (Homo sapiens, UniProt P49768); test: Screening for γ-secretase-modulating activity: Aβ42 in supernatant of SKNBE2 cells carrying hAPP 695 wild type (Alphalisa); format: cell-based; conditions: SKNBE2 human neuroblastoma cells carrying hAPP 695 wild type, overnight incubation, Aβ42 in cell supernatant
T1 construct: endogenous in cells; host or cells: SKNBE2 human neuroblastoma cells (carrying hAPP 695 wild type as substrate)
Outline: (§1)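 SKNBE2 neuroblastoma cells expressing wild-type hAPP 695 plated at 10^4 cells/well in Ultraculture with test compound, incubated overnight at 37° C. Aβ42 (C-terminal/N-terminal antibody pair) and Aβtotal (N-terminal/4G8 pair) in supernatant quantified by AlphaLISA. IC50 from 4-parameter fit of percent of compound-free control.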

γ-secretase [2] = molecular target: T1, γ-secretase; test: Screening for γ-secretase-modulating activity: Aβtotal in supernatant of SKNBE2 cells carrying hAPP 695 wild type (Alphalisa); format: cell-based; conditions: SKNBE2 human neuroblastoma cells carrying hAPP 695 wild type, overnight incubation, Aβtotal in cell supernatant
Outline: as §1

SMILES | melting point | IC50 (γ-secretase [1]) | IC50 (γ-secretase [2])
Cc1cn(-c2ccc3n(c2=O)CCN(c2cccc(C(F)(F)F)c2C)C3=O)cn1 [compound 57] | 248.6 °C | > 10000 nM | > 10 µM
Cc1cn(-c2ccc3n(c2=O)CCN(Cc2cccc(C(F)(F)F)c2C)C3=O)cn1 [compound 58] | 199.4 °C | 830 nM | > 10 µM
COc1ccc(CN2C(=O)c3ccc(-n4cnc(C)c4)c(=O)n3C[C@H]2C)cc1C(F)(F)F [compound 67] | 140.2 °C | 560 nM | > 10 µM
COc1cc(CN2C(=O)c3ccc(-n4cnc(C)c4)c(=O)n3C[C@H]2C)cc(C(F)(F)F)c1 [compound 68] | 132.4 °C | 190 nM | > 10 µM
COc1ccc(CN2CCn3c(ccc(-n4cnc(C)c4)c3=O)C2=O)cc1C(F)(F)F [compound 69] | 177 °C | 1020 nM | > 10 µM
Cc1cn(-c2ccc3n(c2=O)C[C@@H](C)N(Cc2cc(C(F)(F)F)ccc2F)C3=O)cn1 [compound 70] | 108.5 °C | 580 nM | > 10 µM
Cc1cn(-c2ccc3n(c2=O)CCN(Cc2ccc(F)cc2C)C3=O)cn1 [compound 73] | 227.4 °C | 2570 nM | > 10 µM
Cc1cn(-c2ccc3n(c2=O)CCN(Cc2cccc(OC(F)(F)F)c2)C3=O)cn1 [compound 74] | 163.4 °C | 380 nM | > 10 µM
Cc1cn(-c2ccc3n(c2=O)CCN(Cc2ccc(OC(F)(F)F)cc2C)C3=O)cn1 [compound 75] | 214.1 °C | 980 nM | > 10 µM
Cc1cn(-c2ccc3n(c2=O)C[C@@H](C)N(Cc2cccc(N4CCCCC4)c2)C3=O)cn1 [compound 84] | 108.2 °C | 230 nM | > 10 µM
Cc1cn(-c2cc(Cl)c3n(c2=O)CCN(Cc2cccc(-c4ccccc4)c2)C3=O)cn1 [compound 88] | 136.5 °C | 1860 nM | > 10 µM
Cc1cncn1-c1ccc2n(c1=O)CCN(Cc1ccccc1)C2=O [compound 89] | 146.5 °C | > 10000 nM | > 10 µM
Cc1cn(-c2ccc3n(c2=O)CCN(Cc2cccc(-c4ccc(F)cc4C(F)(F)F)c2)C3=O)cn1 [compound 90] | 138 to 143 °C | 70 nM | > 10 µM
Cc1cn(-c2ccc3n(c2=O)CCN(Cc2ccc4c(c2)OCCCO4)C3=O)cn1 [compound 93] | 192.2 °C | 6760 nM | > 10 µM
Cc1cn(-c2ccc3n(c2=O)CCN(Cc2cccc(N4CCOCC4)c2)C3=O)cn1 [compound 95] | 181.6 °C | 7590 nM | > 10 µM
Cc1cn(-c2ccc3n(c2=O)CCN(Cc2cccc(N4CCCCC4)c2)C3=O)cn1 [compound 96] | 163.6 °C | 760 nM | > 10 µM
Cc1cn(-c2ccc3n(c2=O)CCN(Cc2cccc(N4CCCCC4)c2C)C3=O)cn1 [compound 97] | 207.8 °C | 440 nM | > 10 µM
Cc1cn(-c2ccc3n(c2=O)CCN(Cc2ccccc2N2CCCCC2)C3=O)cn1 [compound 100] | 167.4 °C | 760 nM | > 10 µM
Cc1cn(-c2ccc3n(c2=O)CCN(Cc2cccc(C4CC4)c2)C3=O)cn1 [compound 101] | 121.5 °C | 740 nM | > 10 µM
Cc1cn(-c2ccc3n(c2=O)CCN(c2ccccc2C)C3=O)cn1 [compound 102] | 222.2 °C | > 10000 nM | > 10 µM
Cc1cn(-c2ccc3n(c2=O)CCN(CCC2COc4ccccc4O2)C3=O)cn1 (stereo not drawn) [compound 103] | 176.8 °C | 2450 nM | > 10 µM
Cc1cn(-c2ccc3n(c2=O)CCN(C2CCc4c2cccc4C(F)(F)F)C3=O)cn1 (stereo not drawn) [compound 105] | 253.5 °C | 2820 nM | > 10 µM
Cc1cn(-c2ccc3n(c2=O)CCN(C2CCCc4ccc(C(F)(F)F)cc42)C3=O)cn1 (stereo not drawn) [compound 106] | 189.4 °C | 720 nM | > 10 µM
Cc1cn(-c2ccc3n(c2=O)CCN(C2CCCc4c2cccc4C(F)(F)F)C3=O)cn1 (stereo not drawn) [compound 107] | 257.3 °C | 2450 nM | > 10 µM

SMILES | melting point | IC50 (γ-secretase [1]) | IC50 (γ-secretase [2])
Cc1cn(-c2ccc3n(c2=O)C[C@@H](C)N(Cc2ccc4c(c2)OC(F)(F)O4)C3=O)cn1 [compound 113] | 136.1 °C | 400 nM | > 10 µM
Cc1cn(-c2ccc3n(c2=O)C[C@@H](C)N(Cc2ccc4scc(Br)c4c2)C3=O)cn1 [compound 115] | 101.4 °C | 140 nM | > 10 µM
COc1cccc(CN2CCn3c(ccc(-n4cnc(C)n4)c3=O)C2=O)c1 [compound 119] | 151.2 °C | > 10000 nM | > 10 µM
Cc1ncn(-c2ccc3n(c2=O)CCN(Cc2cccc(C(F)(F)F)c2)C3=O)n1 [compound 120] | 194.9 °C | 6170 nM | > 10 µM
Cc1cn(-c2ccc3n(c2=O)CCCN(Cc2ccc(Cl)c(Cl)c2)C3=O)cn1 [compound 121] | 173.4 °C | 380 nM | > 10 µM
Cc1cn(-c2ccc3n(c2=O)C[C@@H](C)N(Cc2ccccc2)C3=O)cn1 [compound 124] | 136.5 °C | 2340 nM | > 10 µM
Cc1cn(-c2ccc3n(c2=O)C[C@@H](C)N(Cc2cc(Cl)cc(Cl)c2)C3=O)cn1 [compound 131] | 170.7 °C | 200 nM | > 10 µM
Cc1ncn(-c2ccc3n(c2=O)CC(C)N(Cc2cc(C(F)(F)F)cc(C(F)(F)F)c2)C3=O)n1 (stereo not drawn) [compound 155] | 160.9 °C | 510 nM | > 10 µM
Cc1cn(-c2c(Br)cc3n(c2=O)C[C@@H](C)N(Cc2cc(C(F)(F)F)cc(C(F)(F)F)c2)C3=O)cn1 [compound 157] | 147.7 °C | 2040 nM | 8.71 µM
Cc1cn(-c2ccc3n(c2=O)CCN(Cc2cc(OC(C)C)cc(C(F)(F)F)c2)C3=O)cn1 [compound 160] | 171.7 °C | 190 nM | > 10 µM
Cc1cn(-c2ccc3n(c2=O)CCN(C(C)c2cc(F)cc(C(F)(F)F)c2)C3=O)cn1 (stereo not drawn) [compound 168] | 225.6 °C | 1410 nM | > 10 µM
Cc1cn(-c2ccc3n(c2=O)CCN(C(C)Cc2cc(C(F)(F)F)cc(C(F)(F)F)c2)C3=O)cn1 (stereo not drawn) [compound 172] | 182.3 °C | 250 nM | > 10 µM
Cc1cn(-c2ccc3n(c2=O)C[C@@H](C)N(Cc2cn(C)c4cc(F)c(Cl)cc24)C3=O)cn1 [compound 196] | 187 °C | 20 nM | 7.41 µM
Cc1cn(-c2ccc3n(c2=O)C[C@@H](C)N(Cc2cn(C(C)C)c4cc(Br)ccc24)C3=O)cn1 [compound 200] | 181 °C | 20 nM | > 10 µM
Cc1cn(-c2ccc3n(c2=O)C[C@@H](C)N(Cc2cn(C)c4cc(C(F)(F)F)ccc24)C3=O)cn1 [compound 228] | 161 °C | 50 nM | > 10 µM
Cc1cn(-c2ccc3n(c2=O)C[C@@H](C)N(CCc2cccc(C(F)(F)F)c2C)C3=O)cn1 [compound 229] | 129 °C | 130 nM | > 10 µM
Cc1cn(-c2ccc3n(c2=O)C[C@@H](C)N(CCc2cc(Cl)ccc2Cl)C3=O)cn1 [compound 230] | 192 °C | 210 nM | > 10 µM
Cc1cn(-c2ccc3n(c2=O)C[C@@H](C)N(CCc2cc(C(F)(F)F)ccc2F)C3=O)cn1 [compound 232] | 148 °C | 210 nM | > 10 µM
COc1ccc(Cl)cc1CCN1C(=O)c2ccc(-n3cnc(C)c3)c(=O)n2C[C@H]1C [compound 233] | 193 °C | 260 nM | > 10 µM
CCn1cc(CN2C(=O)c3ccc(-n4cnc(C)c4)c(=O)n3C[C@H]2C)c2cc(OC)c(Cl)cc21 [compound 251] | 150 °C | 20 nM | 6 µM
Cc1cn(-c2ccc3n(c2=O)CCN(Cc2cn(C)c4cc(Cl)c(Cl)cc24)C3=O)cn1 [compound 254] | 217 °C | 20 nM | 6 µM
Cc1cn(-c2ccc3n(c2=O)C[C@@H](C)N(Cc2cn(C)c4cc(Cl)c(Cl)cc24)C3=O)cn1 [compound 255] | 265 °C | 10 nM | 3 µM
Cc1cn(-c2ccc3n(c2=O)CCN(Cc2cn(C)c4c(Cl)cc(Cl)cc24)C3=O)cn1 [compound 259] | 230 °C | 20 nM | 6 µM

Reference: patent US20150141411A1, “SUBSTITUTED 3,4-DIHYDRO-2H-PYRIDO[1,2-A]PYRAZINE-1,6-DIONE DERIVATIVES USEFUL FOR THE TREATMENT OF (INTER ALIA) ALZHEIMER'S DISEASE” (Janssen Pharmaceuticals, Inc., priority 2012, published 2015)
